The values that follow come from patent US20230036854A1, “HETEROCYCLIC SPIRO-COMPOUNDS AS AM2 RECEPTOR INHIBITORS” (THE UNIVERSITY OF SHEFFIELD, priority 2018, published 2023).

In the test the target is T1, AM2 receptor (1321N1 cells transfected with CALCRL+RAMP3) (Homo sapiens, UniProt O60896+Q16602).
T1 construct: host or cells: 1321N1 cells
T1 sequence (Q16602 23-461): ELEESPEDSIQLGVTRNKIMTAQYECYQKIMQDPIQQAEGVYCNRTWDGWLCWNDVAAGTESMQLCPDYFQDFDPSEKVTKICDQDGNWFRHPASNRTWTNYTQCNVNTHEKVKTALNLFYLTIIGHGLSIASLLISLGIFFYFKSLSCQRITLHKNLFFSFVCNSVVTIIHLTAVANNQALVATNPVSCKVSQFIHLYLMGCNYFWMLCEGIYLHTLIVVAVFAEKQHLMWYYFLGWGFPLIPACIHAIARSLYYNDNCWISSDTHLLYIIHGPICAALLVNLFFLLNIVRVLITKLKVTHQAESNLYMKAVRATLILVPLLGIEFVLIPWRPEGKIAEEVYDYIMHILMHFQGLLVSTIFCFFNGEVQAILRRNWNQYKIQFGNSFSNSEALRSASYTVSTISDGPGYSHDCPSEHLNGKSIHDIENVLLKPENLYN
T1 sequence (O60896 24-148): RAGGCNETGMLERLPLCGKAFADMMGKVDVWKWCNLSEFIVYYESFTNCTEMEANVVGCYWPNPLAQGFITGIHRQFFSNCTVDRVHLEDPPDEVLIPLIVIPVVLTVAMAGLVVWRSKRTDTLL
Briefly: AM2 receptor inhibition, LANCE cAMP agonist-antagonist competition assay. The following applies: inhibition of AM induced cAMP activation, read-out: AM2 D2 protocol: pIC50 (converted). Type of test: cell-based. The procedure, abridged: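 1321N1 cells co-expressing CALCRL and RAMP3 (2500/well) were preincubated with compound for 30 min at room temperature, then stimulated with adrenomedullin at its EC50 dose for 15 min in HBSS/HEPES/BSA buffer, pH 7.4. cAMP was measured by LANCE TR-FRET and normalised to forskolin (100%) and vehicle (0%) controls.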
(In general: TR-FRET usually uses a lanthanide donor and a delayed reading to cut background.)
On to `CCC1(C(=O)N(CC(=O)Nc2ccc3c(c2)C[C@@]2(C3)C(=O)Nc3ncccc32)Cc2ccccc2CNC)CCN(C(=O)[C@@H](C)NC)CC1` [Example 77, 4-Ethyl-N-(2-((methylamino)methyl)benzyl)-1-((R)-2-(methylamino)propanoyl)-N-(2-oxo-2-(((R)-2′-oxo-1,1′,2′,3-tetrahydrospiro[indene-2,3′-pyrrolo[2,3-b]pyridin]-5-yl)amino)ethyl)piperidine-4-carboxamide], for which the IC50 is 24 nM.

Consider `CCC1(C(=O)N(CC(=O)Nc2ccc3c(c2)C[C@@]2(C3)C(=O)Nc3ncccc32)Cc2ccccc2CNC)CCN(C(=O)c2cccc(C(F)(F)F)n2)CC1` [Example 78, (R)-4-Ethyl-N-(2-((methylamino)methyl)benzyl)-N-(2-oxo-2-((2′-oxo-1,1′,2′,3-tetrahydrospiro[indene-2,3′-pyrrolo[2,3-b]pyridin]-5-yl)amino)ethyl)-1-(6-(trifluoromethyl)picolinoyl)piperidine-4-carboxamide], for which the IC50 is 112 nM.

On to `CCC1(C(=O)N(CC(=O)Nc2ccc3c(c2)C[C@@]2(C3)C(=O)Nc3ncccc32)Cc2ccccc2CNC)CCN(C(=O)[C@@H](N)c2ccccc2)CC1` [Example 79, 1-((S)-2-Amino-2-phenylacetyl)-4-ethyl-N-(2-((methylamino)methyl)benzyl)-N-(2-oxo-2-(((R)-2′-oxo-1,1′,2′,3-tetrahydrospiro[indene-2,3′-pyrrolo[2,3-b]pyridin]-5-yl)amino)ethyl)piperidine-4-carboxamide], for which the IC50 is 7.41 nM.

Consider `CCC1(C(=O)N(CC(=O)Nc2ccc3c(c2)C[C@@]2(C3)C(=O)Nc3ncccc32)Cc2ccccc2CNC)CCN(C(=O)[C@H](N)C(C)C)CC1` [Example 80, 1-((R)-2-Amino-3-methylbutanoyl)-4-ethyl-N-(2-((methylamino)methyl)benzyl)-N-(2-oxo-2-(((R)-2′-oxo-1,1′,2′,3-tetrahydrospiro[indene-2,3′-pyrrolo[2,3-b]pyridin]-5-yl)amino)ethyl)piperidine-4-carboxamide], for which the IC50 was 57.5 nM.

Consider `CCC1(C(=O)N(CC(=O)Nc2ccc3c(c2)C[C@@]2(C3)C(=O)Nc3ncccc32)Cc2ccccc2CNC)CCN(C(=O)[C@H](N)c2ccccc2)CC1` [Example 81, 1-((R)-2-Amino-2-phenylacetyl)-4-ethyl-N-(2-((methylamino)methyl)benzyl)-N-(2-oxo-2-(((R)-2′-oxo-1,1′,2′,3-tetrahydrospiro[indene-2,3′-pyrrolo[2,3-b]pyridin]-5-yl)amino)ethyl)piperidine-4-carboxamide], for which the IC50 was 2.34 nM.

For the compound `CCC1(C(=O)N(CC(=O)Nc2ccc3c(c2)C[C@@]2(C3)C(=O)Nc3ncccc32)Cc2ccccc2CNC)CCN(C(=O)[C@@H](N)C(C)C)CC1` [Example 82, 1-((S)-2-Amino-3-methylbutanoyl)-4-ethyl-N-(2-((methylamino)methyl)benzyl)-N-(2-oxo-2-(((R)-2′-oxo-1,1′,2′,3-tetrahydrospiro[indene-2,3′-pyrrolo[2,3-b]pyridin]-5-yl)amino)ethyl)piperidine-4-carboxamide], the IC50 is 8.32 nM.

As for `CCC1(C(=O)N(CC(=O)Nc2ccc3c(c2)C[C@@]2(C3)C(=O)Nc3ncccc32)Cc2ccccc2CNC)CCN(C(=O)[C@H]2COCCN2)CC1` [Example 83, 4-Ethyl-N-(2-((methylamino)methyl)benzyl)-1-((R)-morpholine-3-carbonyl)-N-(2-oxo-2-(((R)-2′-oxo-1,1′,2′,3-tetrahydrospiro[indene-2,3′-pyrrolo[2,3-b]pyridin]-5-yl)amino)ethyl)piperidine-4-carboxamide], the IC50 is 56.2 nM.

As to `CCC1(C(=O)N(CC(=O)Nc2ccc3c(c2)C[C@@]2(C3)C(=O)Nc3ncccc32)Cc2ccccc2CNC)CCN(C(=O)c2ccn[nH]2)CC1` [Example 84, (R)-4-Ethyl-N-(2-((methylamino)methyl)benzyl)-N-(2-oxo-2-((2′-oxo-1,1′,2′,3-tetrahydrospiro[indene-2,3′-pyrrolo[2,3-b]pyridin]-5-yl)amino)ethyl)-1-(1H-pyrazole-5-carbonyl)piperidine-4-carboxamide], the IC50 was 3.55 nM.

As to `CCC1(C(=O)N(CC(=O)Nc2ccc3c(c2)C[C@@]2(C3)C(=O)Nc3ncccc32)Cc2ccccc2CNC)CCN(C(=O)c2cn[nH]c2)CC1` [Example 85, (R)-4-Ethyl-N-(2-((methylamino)methyl)benzyl)-N-(2-oxo-2-((2′-oxo-1,1′,2′,3-tetrahydrospiro[indene-2,3′-pyrrolo[2,3-b]pyridin]-5-yl)amino)ethyl)-1-(1H-pyrazole-4-carbonyl)piperidine-4-carboxamide], the IC50 was 3.8 nM.

On to `CCC1(C(=O)N(CC(=O)Nc2ccc3c(c2)C[C@@]2(C3)C(=O)Nc3ncccc32)Cc2ccccc2CNC)CCN(C(=O)c2cncs2)CC1` [Example 86, (R)-4-Ethyl-N-(2-((methylamino)methyl)benzyl)-N-(2-oxo-2-((2′-oxo-1,1′,2′,3-tetrahydrospiro[indene-2,3′-pyrrolo[2,3-b]pyridin]-5-yl)amino)ethyl)-1-(thiazole-5-carbonyl)piperidine-4-carboxamide], for which the IC50 is 1.26 nM.

For the compound `CCC1(C(=O)N(CC(=O)Nc2ccc3c(c2)C[C@@]2(C3)C(=O)Nc3ncccc32)Cc2ccccc2CNC)CCN(C(=O)C23CC(C2)C3)CC1` [Example 87], the IC50 is 2.19 nM.

For `CCC1(C(=O)N(CC(=O)Nc2ccc3c(c2)C[C@@]2(C3)C(=O)Nc3ncccc32)Cc2ccccc2CNC)CCN(C(=O)C(C)(C)F)CC1` [Example 88, (R)-4-Ethyl-1-(2-fluoro-2-methylpropanoyl)-N-(2-((methylamino)methyl)benzyl)-N-(2-oxo-2-((2′-oxo-1,1′,2′,3-tetrahydrospiro[indene-2,3′-pyrrolo[2,3-b]pyridin]-5-yl)amino)ethyl)piperidine-4-carboxamide], the IC50 was 2.45 nM.

In the case of `CCC1(C(=O)N(CC(=O)Nc2ccc3c(c2)C[C@@]2(C3)C(=O)Nc3ncccc32)Cc2ccccc2CNC)CCN(C(=O)C2CCC2)CC1` [Example 89, (R)-1-(Cyclobutanecarbonyl)-4-ethyl-N-(2-((methylamino)methyl)benzyl)-N-(2-oxo-2-((2′-oxo-1,1′,2′,3-tetrahydrospiro[indene-2,3′-pyrrolo[2,3-b]pyridin]-5-yl)amino)ethyl)piperidine-4-carboxamide], the IC50 was 5.5 nM.

Consider `CCC1(C(=O)N(CC(=O)Nc2ccc3c(c2)C[C@@]2(C3)C(=O)Nc3ncccc32)Cc2ccccc2CNC)CCN(C(=O)CN2CCOCC2)CC1` [Example 90, (R)-4-Ethyl-N-(2-((methylamino)methyl)benzyl)-1-(2-morpholinoacetyl)-N-(2-oxo-2-((2′-oxo-1,1′,2′,3-tetrahydrospiro[indene-2,3′-pyrrolo[2,3-b]pyridin]-5-yl)amino)ethyl)piperidine-4-carboxamide], for which the IC50 is 22.9 nM.

Take `CCC1(C(=O)N(CC(=O)Nc2ccc3c(c2)C[C@@]2(C3)C(=O)Nc3ncccc32)Cc2ccccc2CNC)CCN(C(=O)c2cc(C(C)(C)C)n[nH]2)CC1` [Example 91, (R)-1-(3-(tert-Butyl)-1H-pyrazole-5-carbonyl)-4-ethyl-N-(2-((methylamino)methyl)benzyl)-N-(2-oxo-2-((2′-oxo-1,1′,2′,3-tetrahydrospiro[indene-2,3′-pyrrolo[2,3-b]pyridin]-5-yl)amino)ethyl)piperidine-4-carboxamide]: the IC50 is 34.7 nM.

For the compound `CCC1(C(=O)N(CC(=O)Nc2ccc3c(c2)C[C@@]2(C3)C(=O)Nc3ncccc32)Cc2ccccc2CNC)CCN(C(=O)c2cc(C(C)(C)C)nn2C)CC1` [Example 92, (R)-1-(3-(tert-Butyl)-1-methyl-1H-pyrazole-5-carbonyl)-4-ethyl-N-(2-((methylamino)methyl)benzyl)-N-(2-oxo-2-((2′-oxo-1,1′,2′,3-tetrahydrospiro[indene-2,3′-pyrrolo[2,3-b]pyridin]-5-yl)amino)ethyl)piperidine-4-carboxamide], the IC50 is 13.2 nM.

As for `CCC1(C(=O)N(CC(=O)Nc2ccc3c(c2)C[C@@]2(C3)C(=O)Nc3ncccc32)Cc2ccccc2CNC)CCN(C(=O)[C@@H]2COCCN2)CC1` [Example 93, 4-Ethyl-N-(2-((methylamino)methyl)benzyl)-1-((S)-morpholine-3-carbonyl)-N-(2-oxo-2-(((R)-2′-oxo-1,1′,2′,3-tetrahydrospiro[indene-2,3′-pyrrolo[2,3-b]pyridin]-5-yl)amino)ethyl)piperidine-4-carboxamide], the IC50 was 18.6 nM.

For the compound `CCC1(C(=O)N(CC(=O)Nc2ccc3c(c2)C[C@@]2(C3)C(=O)Nc3ncccc32)Cc2ccccc2CNC)CCN(C(=O)[C@H](C)NC)CC1` [Example 94, 4-Ethyl-N-(2-((methylamino)methyl)benzyl)-1-((S)-2-(methylamino)propanoyl)-N-(2-oxo-2-(((R)-2′-oxo-1,1′,2′,3-tetrahydrospiro[indene-2,3′-pyrrolo[2,3-b]pyridin]-5-yl)amino)ethyl)piperidine-4-carboxamide], the IC50 is 15.1 nM.

In the case of `CCC1(C(=O)N(CC(=O)Nc2ccc3c(c2)C[C@@]2(C3)C(=O)Nc3ncccc32)Cc2ccccc2CNC)CCN(C(=O)CN2CCC(F)(F)CC2)CC1` [Example 95, (R)-1-(2-(4,4-Difluoropiperidin-1-yl)acetyl)-4-ethyl-N-(2-((methylamino)methyl)benzyl)-N-(2-oxo-2-((2′-oxo-1,1′,2′,3-tetrahydrospiro[indene-2,3′-pyrrolo[2,3-b]pyridin]-5-yl)amino)ethyl)piperidine-4-carboxamide], the IC50 is 12.6 nM.

`CCC1(C(=O)N(CC(=O)Nc2ccc3c(c2)C[C@@]2(C3)C(=O)Nc3ncccc32)Cc2ccccc2CNC)CCN(C(=O)COCCOCCOCCOCCOC)CC1` [Example 96, (R)-4-Ethyl-1-(2,5,8,11,14-pentaoxahexadecan-16-oyl)-N-(2-((methylamino)methyl)benzyl)-N-(2-oxo-2-((2′-oxo-1,1′,2′,3-tetrahydrospiro[indene-2,3′-pyrrolo[2,3-b]pyridin]-5-yl)amino)ethyl)piperidine-4-carboxamide]: the IC50 was 24.5 nM.
